Measurements from patent US8394969B2, “Cyclic benzimidazole derivatives useful as anti-diabetic agents” (Merck Sharp & Dohme Corp., priority 2008, dated 2013).

Target: recombinant human AMPK complex 1 (containing α1β1γ1) (Homo sapiens, UniProt Q13131+Q9Y478)
Assay: […] (in vitro AMPK activation assay)
Format: biochemical
Details: recombinant human AMPK complex 1 (α1β1γ1); basal activity subtracted; read-out: % Maximum AMP Activation of human AMPK Complex 1

Sequence of recombinant human AMPK complex 1 (containing α1β1γ1) (Q13131 whole entry): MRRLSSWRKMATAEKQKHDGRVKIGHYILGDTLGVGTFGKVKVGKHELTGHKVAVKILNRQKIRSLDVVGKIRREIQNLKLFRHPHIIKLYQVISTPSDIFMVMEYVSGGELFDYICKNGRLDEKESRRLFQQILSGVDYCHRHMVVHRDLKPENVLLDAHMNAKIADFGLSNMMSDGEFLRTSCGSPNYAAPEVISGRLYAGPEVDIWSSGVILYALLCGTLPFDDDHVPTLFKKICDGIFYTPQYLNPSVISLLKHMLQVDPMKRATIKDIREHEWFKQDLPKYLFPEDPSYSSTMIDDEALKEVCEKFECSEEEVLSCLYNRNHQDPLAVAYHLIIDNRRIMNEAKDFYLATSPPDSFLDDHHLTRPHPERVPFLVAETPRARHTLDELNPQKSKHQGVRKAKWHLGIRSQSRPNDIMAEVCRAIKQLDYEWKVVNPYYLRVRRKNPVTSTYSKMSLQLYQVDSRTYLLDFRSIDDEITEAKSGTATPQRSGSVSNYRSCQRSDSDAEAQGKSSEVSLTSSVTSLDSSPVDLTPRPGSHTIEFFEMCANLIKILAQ
Sequence of recombinant human AMPK complex 1 (containing α1β1γ1) (Q9Y478 whole entry): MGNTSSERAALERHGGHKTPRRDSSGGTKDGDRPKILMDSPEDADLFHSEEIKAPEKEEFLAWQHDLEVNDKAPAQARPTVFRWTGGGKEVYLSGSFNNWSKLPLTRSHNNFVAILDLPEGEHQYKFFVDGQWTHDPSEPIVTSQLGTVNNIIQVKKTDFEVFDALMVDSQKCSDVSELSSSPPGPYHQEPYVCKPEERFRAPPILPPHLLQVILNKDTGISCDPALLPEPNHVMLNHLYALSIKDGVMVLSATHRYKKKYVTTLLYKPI
Sequence of recombinant human AMPK complex 1 (containing α1β1γ1) (P54619 whole entry partner): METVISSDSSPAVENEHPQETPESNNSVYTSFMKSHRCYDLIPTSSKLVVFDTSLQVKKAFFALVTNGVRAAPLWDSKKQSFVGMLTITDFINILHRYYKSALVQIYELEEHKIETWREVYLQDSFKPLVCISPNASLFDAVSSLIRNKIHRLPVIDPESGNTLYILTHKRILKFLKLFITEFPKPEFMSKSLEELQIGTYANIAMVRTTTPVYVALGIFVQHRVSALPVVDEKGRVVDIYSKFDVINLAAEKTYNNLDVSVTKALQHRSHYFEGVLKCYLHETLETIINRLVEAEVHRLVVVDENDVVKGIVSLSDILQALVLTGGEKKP

Compound	Emax [%]
COC(=O)Cn1c(Oc2ccc(C)c(C(=O)OC)c2)nc2cc(-c3ccc(-c4ccccc4)cc3)c(Cl)cc21 [Example 223, 5-(5-Biphenyl-4-yl-6-chloro-1-methoxycarbonyl-methyl-1H-benzoimidazol-2-yloxy)-2-methyl-benzoic acid methyl ester]	> 80
Cc1ccc(Oc2nc3cc(-c4ccc(-c5ccccc5)cc4)c(Cl)cc3n2CC(=O)O)cc1C(=O)O [Example 224, 5-(5-Biphenyl-1-yl-1-carboxymethyl-6-chloro-1H-benzoimidazol-2-yloxy)-2-methyl-benzoic acid]	> 80
CS(=O)(=O)NC(=O)c1cccc(Oc2nc3cc(-c4ccc(-c5ccccc5)cc4)c(Cl)cc3[nH]2)c1 [Example 225, N-[3-(5-Biphenyl-4-yl-6-chloro-1H-benzoimidazol-2-yloxy)-benzoyl]-methanesulfonamide]	> 80
O=C(O)c1ccc(COc2nc3cc(-c4ccc(-c5ccccc5)cc4)c(Cl)cc3[nH]2)cc1 [Example 226, 4-(5-Biphenyl-4-yl-6-chloro-1H-benzoimidazol-2-yloxymethyl)-benzoic acid]	> 80
O=C(O)c1cc(COc2nc3cc(-c4ccc(-c5ccccc5)cc4)c(Cl)cc3[nH]2)cc(C(=O)O)c1 [Example 227, 5-(5-Biphenyl-4-yl-6-chloro-1H-benzoimidazol-2-yloxymethyl)-isophthalic acid]	> 80
Cc1ccc(Oc2nc3cc(-c4ccc5[nH]c(=O)ccc5c4)c(Cl)cc3[nH]2)cc1C(=O)O [Example 233, 5-[6-Chloro-5-(2-oxo-1,2-dihydro-quinolin-6-yl)-1H-benzoimidazol-2-yloxy]-2-methyl-benzoic acid]	> 80
Cc1ccc(Oc2nc3cc(-c4ccc5c(ccc(=O)n5C)c4)c(Cl)cc3[nH]2)cc1C(=O)O [Example 234, 5-[6-Chloro-5-(1-methyl-2-oxo-1,2-dihydro-quinolin-6-yl)-1H-benzoimidazol-2-yloxy]-2-methyl-benzoic acid]	> 80
Cc1ccc(Oc2nc3cc(-c4ccc5c(c4)n(C)c(=O)n5C)c(Cl)cc3[nH]2)cc1C(=O)O [Example 235, 5-(6-Chloro-1′,3′-dimethyl-2′-oxo-2′,3′-dihydro-1H,1′H-[5,5′]bibenzoimidazolyl-2-yloxy)-2-methyl-benzoic acid]	> 80

Same assay, conditions: recombinant human AMPK complex 1 (α1β1γ1); read-out: EC50

Compound	EC50 [nM]
Cc1ccc(Oc2nc3c(F)c(-c4ccc5c(ccn5C)c4)c(F)cc3[nH]2)cc1C(=O)O [Example 228, 5-[4,6-Difluoro-5-(1-methyl-1H-indol-5-yl)-1H-benzoimidazol-2-yloxy]-2-methyl-benzoic acid]	2
Cc1ccc(Oc2nc3cc(-c4ccc5c(ccn5C)c4)c(Cl)cc3[nH]2)cc1C(=O)O [Example 229, 5-{[6-chloro-5-(1-methyl-1H-indol-5-yl)-1H-benzimidazol-2-yl]oxy}-2-methylbenzoic acid]	3
Cc1ccc(Oc2nc3cc(-c4ccc(C5CC5)cc4)c(Cl)cc3[nH]2)cc1C(=O)O [Example 230, 5-{[6-chloro-5-(4-cyclopropylphenyl)-1H-benzimidazol-2-yl]oxy}-2-methylbenzoic acid]	9
Cc1ccc(Oc2nc3cc(-c4ccc(N5CCCC5)cc4)c(Cl)cc3[nH]2)cc1C(=O)O [Example 231, 5-{[6-chloro-5-(4-pyrrolidin-1-ylphenyl)-1H-benzimidazol-2-yl]oxy}-2-methylbenzoic acid]	7
Cc1ccc(Oc2nc3cc(-c4ccc(-c5ccccc5O)cc4)c(F)cc3[nH]2)cc1C(=O)O [Example 232, 5-{[6-fluoro-5-(2′-hydroxybiphenyl-4-yl)-1H-benzimidazol-2-yl]oxy}-2-methylbenzoic acid]	1
Cc1ccc(Oc2nc3cc(-c4ccc(C(=O)N5CCC(O)CC5)cc4)c(Cl)cc3[nH]2)cc1C(=O)O [Example 236, 5-{6-Chloro-5-[4-(4-hydroxy-piperidine-1-carbonyl)-phenyl]-1H-benzoimidazol-2-yloxy}-2-methyl-benzoic acid]	10
